According to patent publication US20040038952A1, “Pharmaceutical compositions for treatment of digestive disorders and associated diseases” (priority 2000, published 2004):
“Also recorded” adds a separate entry of the source.

Columns and labels:
[1] = system: patients affected by either non-ulcer dyspepsia, biliary dyskinesis or irritable bowel syndrome; assay: Open clinical study in digestive disorders: overall (psychosomatic) condition; type: in vivo, human; settings: % of cases, 3 months, group A 150 mg ursodeoxycholic acid, group B 300 mg quercetin, group C Example 2; for Overall (psychosomatic) condition: Improved: unrestricted fat diet
Description: The patients treated with the composition of the invention during or at the end of the meals were able to digest any type of foods including heavy or spicy ones. […] The improvement of the symptoms of patients treated with the composition of Example 2 was higher than that of the bile acid or bioflavonoid treatment alone.
(§1) In these studies 48 patients affected by either non-ulcer dyspepsia, biliary dyskinesis or irritable bowel syndrome were involved. 24 patients with unrestricted fat diet received only 150 mg of ursodeoxycholic acid (group A) and 24 patients only bioflavonoid (300 mg of quercetin) (group B) for 3 months. After one-month washout both groups received ursodeoxycholic acid+quercetin (Example 2) (group C) for another 3 months.
The overall (psychosomatic) condition and subjective symptoms were compared to the results of an age and sex matched control group.
The evaluation of the psychosomatic condition: improved, unchanged, worsened.

[2] = system: patients affected by either non-ulcer dyspepsia, biliary dyskinesis or irritable bowel syndrome; assay: Open clinical study in digestive disorders: subjective gastrointestinal symptoms, grade 0-3; type: in vivo, human; settings: total number of points/number of patients, 3 months, control group value in brackets
Protocol: as §1
The gastrointestinal symptoms (postprandial early satiety, abdominal distention or bloating, nausea, vomitus, diarrhea, constipation) were evaluated by using the following grading system:
The treatments A, B and C shown in point 1 were used. In Table 2 the average complaint ratio related to one patient was given (average complaint ratio=total number of points/number of patients). The values of the control groups are given in brackets.

[3] = system: female patients affected by digestive disorders, "dry eye" syndrome and premenstrual syndrome; assay: Treatment of premenstrual symptoms; type: in vivo, human
Protocol: (§2) 72 female patients affected by digestive disorders, “dry eye” syndrome and premenstrual syndrome were treated Intramuscularly administered vitamin A improved the symptoms of “dry eye” and premenstral syndrome, but it was ineffective by peroral administration.
(§3) Treatment A: 300.000 IU vitamin A in oil intramuscular administration ones per months,
(§4) Treatment B: 50.000 IU vitamin A acetate dragée peroral administration, once every second day,
(§5) Treatment C: 50.000 IU vitamin A acetate dragée peroral administration, once every second day+composition of the invention (Example 4).
Symptoms of the premenstrual syndrome: food (sweets or chocolate) craving, exhaustion, irritability, fearfullness, anxiety or depression, hostility, feeling out of control, confusion, sleep disturbances, acne, fluid retention, weight gain, breast swelling, aches and pains, bloating, constipation or diarrhoea.
The number of patients, methods of treatment and the grade of evaluation were the same as shown in experiment 3.

[4] = system: female patients affected by digestive disorders, "dry eye" syndrome and premenstrual syndrome; assay: Improvement of activity of fat-soluble substances: "dry eye" syndrome symptoms; type: in vivo, human
Protocol: as §2
The subjective symptoms were evaluated by questionairs by using the following grade:
“Dry eye” syndrome has the following symptoms: sensation of dryness, foreign body, tired eye, soreness, scatchiness, burning, reduced tearing of emotion, difficulties of opening the eye upon waking, episodes of excessive tearing, particular sensibility to wind, air conditioning, smoking, topical medication. Objective signs: particulate matter on the ocular surface, mucusthread at the inner canthus or in the lower fornix, deposits at the orefices of the meibomian glands, filamentary keratitis, hyperemia of the bulbar conjunctiva, papillary hypertrophy of the tarsal conjunctiva, thin tear meniscus, decreased brightness of the bulbar conjunctiva, frequent blinking, tear film abnormalities with fluorescein staining.
The patients were treated as follows:
as §3, §4, §5

[5] = system: Dry eye model in Wistar rats by retrobulbar injection of capsaicin; assay: Topical treatment of "dry eye": capsaicin dry eye model; type: in vivo; settings: one drop 3 times per day
Protocol: Dry eye model was created in 16 Wistar rats in one eye by retrobulbar injection of capsaicin as it was published in [Camras PCB, Bito L Z: The pathophysiological effects of nitrogen mustard on the rabbit eye. II. The inhibition of the initial hypersensitive phase by capsaicin and the apparent role of substance P. Invest Ophthaimol Vis Sci. 19, 423-8 (1980)], while the other eye (control) was not treated at all.
The following treatments were applied:
A treatment: 4 rats were treated with topical artificial tear drops, one drop 3 times per day;
B treatment: 4 rats were treated with the composition of Example 10, one drop 3 times per day,
C treatment: 4 rats were treated with the composition of Example 10, one drope 3 times per day+one drop of vitamin A 3 times per day (oil drop; 30 000 IU/ml),
D treatment: 4 rats were treated with vitamin A, one drop 3 times per day (oil drop 30 000 IU/ml).
The condition of eyes were registered as written in the literature and evaluated 4 weeks after treatment on the following scale:
1=punctiform ephitelial loss of the cornea;
2=large ephitelial loss of the cornea with mild corneal edema;
3=large ephitelial loss of the cornea with severe corneal edema.

[6] = Treatment A: 300.000 IU vitamin A in oil, intramuscular, once per month
[7] = peroral, 50.000 IU vitamin A acetate dragée once every second day (Treatment B alone, Treatment C + Example 4)

| Compound | Overall (psychosomatic) condition: Unchanged or worsened [1] | Overall (psychosomatic) condition: Improved [1] | Diarrhoea/constipation, average complaint ratio [2] | Meteorism, average complaint ratio [2] | Nausea, average complaint ratio [2] | Satiety, average complaint ratio [2] | Vomitus, average complaint ratio [2] | other results |
| --- | --- | --- | --- | --- | --- | --- | --- | --- |
| C[C@H](CCC(=O)O)[C@H]1CC[C@H]2[C@@H]3[C@@H](O)C[C@@H]4C[C@H](O)CC[C@]4(C)[C@H]3CC[C@]12C [ursodeoxycholic acid] | 33% | 67% | 2.19 (2.54) | 2.12 (2.78) | 0.83 (1.17) | 2.06 (2.92) | 0.12 (0.83) |  |
| O=c1c(O)c(-c2ccc(O)c(O)c2)oc2cc(O)cc(O)c12 [quercetin] | 55% | 45% | 0.63 (2.54) | 1.96 (2.33) | 0.92 (1.25) | 2.04 (2.86) | 0.46 (0.75) |  |
| vitamin A |  |  |  |  |  |  |  | Premenstrual symptoms: Improved [3, 6]: 72%; Premenstrual symptoms: Unchanged [3, 6]: 28%; Symptoms of premenstrual syndrome, in words ([3]; intramuscular administration): improved; Symptoms of premenstrual syndrome, in words ([3]; peroral administration): ineffective; also recorded: hardly improve; "Dry eye" symptoms: Improved [4, 6]: 80%; "Dry eye" symptoms: Unchanged [4, 6]: 20%; Symptoms of "dry eye", in words ([4]; intramuscular administration): improved; Symptoms of "dry eye", in words ([4]; peroral administration): ineffective; also recorded: improved only weakly; Improvement of eye alteration (in words) ([5]; compared to artificial tear drops): not significant; Reduced eye alteration compared to treatment with artificial tear drop (treatment A) ([5]; evaluated 4 weeks after treatment on scale 0-3, vitamin A oil drop 30 000 IU/ml): <5% |
| CC(=O)OC/C=C(C)/C=C/C=C(C)/C=C/C1=C(C)CCCC1(C)C [vitamin A acetate] |  |  |  |  |  |  |  | Premenstrual symptoms: Improved [3, 7]: 8%; Premenstrual symptoms: Unchanged [3, 7]: 92%; "Dry eye" symptoms: Improved [4, 7]: 12%; "Dry eye" symptoms: Unchanged [4, 7]: 88% |
